The target of the test is human A2A receptor (Homo sapiens (Human), UniProt P29274). Description: competition binding assay using Scintillation Proximity technology. Particulars: membranes from CHO-K1 cells expressing the human A2a receptor; 2.0 nM tritiated compound; Cheng-Prusoff. An outline of the steps:
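Membranes (1.0 μg) from CHO-K1 cells expressing human A2A were treated with adenosine deaminase, then incubated 1 h at room temperature with compound (3000–0.15 nM) and 2.0 nM tritiated SCH-type ligand on WGA SPA beads in PBS plus 10 mM MgCl2. Nonspecific binding was defined with 1 μM CGS 15943. Ki was derived from EC50 via Cheng-Prusoff.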

Sequence of human A2A receptor (P29274 whole entry): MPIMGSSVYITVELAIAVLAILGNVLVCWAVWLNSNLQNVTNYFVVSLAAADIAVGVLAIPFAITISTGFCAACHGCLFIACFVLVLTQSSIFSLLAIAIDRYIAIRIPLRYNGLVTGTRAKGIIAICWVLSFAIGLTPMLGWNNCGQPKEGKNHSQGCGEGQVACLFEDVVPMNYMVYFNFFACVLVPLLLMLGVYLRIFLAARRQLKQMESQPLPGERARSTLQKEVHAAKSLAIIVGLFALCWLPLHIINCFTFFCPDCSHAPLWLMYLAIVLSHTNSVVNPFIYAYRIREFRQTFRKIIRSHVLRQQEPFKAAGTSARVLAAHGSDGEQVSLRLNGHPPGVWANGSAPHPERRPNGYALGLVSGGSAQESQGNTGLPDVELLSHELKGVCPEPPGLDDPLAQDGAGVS

One may read the Ki as the dissociation constant of the complex between target and ligand, obtained from inhibition or displacement. A lower Ki goes with higher affinity. `CN1CCN(CCc2nc3c4ccc5c(c4nc(N)n3n2)OC(F)(F)O5)CC1=O` [Example 47, 4-[2-(5-amino-2,2-difluoro[1,3]dioxolo[4,5-h][1,2,4]triazolo [1,5-c]quinazolin-8-yl)ethyl]-1-methylpiperazin-2-one] had a Ki of 1.7 nM.

Take `C[C@@H]1CN(c2nsnc2Cl)CCN1Cc1nc2c3ccc4c(c3nc(N)n2n1)OC(F)(F)O4` [Example 108, 8-{[(2R)-4-(4-chloro-1,2,5-thiadiazol-3-yl)-2-methylpiperazin-1-yl]methyl}-2,2-difluoro[1,3] dioxolo[4,5-h][1,2,4]triazolo[1,5-c]quinazolin-5-amine]: the Ki came to 7.5 nM. The result for `Nc1nc2c3c(ccc2c2nc(CCN4CCCC45CCNCC5)nn12)OC(F)(F)O3` [Example 55, 8-[2-(1,8-diazaspiro[4.5]dec-1-yl)ethyl]-2,2-difluoro[1,3] dioxolo[4,5-h][1,2,4]triazolo [1,5-c]quinazolin-5-amine] reads 22 nM.

Turning to `Nc1nc2c3c(ccc2c2nc(CCN4CCCC5(CCNCC5)C4)nn12)OC(F)(F)O3` [Example 56, 8-[2-(2,9-diazaspiro[5.5]undec-2-yl)ethyl]-2,2-difluoro[1,3] dioxolo[4,5-h][1,2,4]triazolo [1,5-c]quinazolin-5-amine], the affinity, expressed as Ki, was 27 nM. The Ki values of the last two compounds are within 1.5-fold of each other.
